Consider 38 compounds from patent US11827629B2, “CDGSH iron sulfur domain 2 activators and use thereof” (National Health Research Institutes, priority 2021, dated 2023).

The experiment concerns Cisd2 promoter with firefly luciferase reporter. Description: Cisd2-luciferase reporter assay in HEK293-CISD2 cells. The experiment is classed as cell-based. The settings on record: Homo sapiens, 24 hours incubation, luciferase luminescence. The procedure:
A typical in vitro screening method includes the following steps: (i) obtaining an initial level of Cisd2 in a batch of human embryonic kidney cells 293 (HEK-293 cells) that express Cisd2, (ii) treating the batch of HEK-293 cells with a compound of this invention, and (iii) analyzing the level of Cisd2 after the treatment, thereby determining the potency of the compound as a Cisd2 activator.
Compounds 1-109 were tested for increasing the level of Cisd2 in human embryonic kidney cells 293 (HEK293), a transfected cell line expressing Cisd2, using the Cisd2-luciferase reporter assay as follows.
The transfected HEK293 cells stably expressed Cisd2 promoter with firefly luciferase reporter (HEK293-CISD2). They were kept in Dulbecco's modified Eagle's medium (DMEM) (Gibco, New York, NY, USA). Culture medium was supplemented with 10% heat-inactivated fetal bovine serum (FBS), 2 mM L-Glutamine, 1 mM sodium pyruvate, 0.1% MEM Non-Essential Amino Acids, 1 ug/ml puromycin and 1% penicillin/streptomycin (HyClone, Logan, UT, USA). The cells were maintained at 37° C. in an incubator (Thermo Fisher Scientific, New York, NY, USA) with an atmosphere of 5% CO2. The stably transfected cells were seeded in 384-well plates at a density of 3×10^3 cells/well. After incubation with tested compounds at 37° C. for 24 hours, ONE-Glo™ Luciferase Assay System (Promega, Madison, WI, USA) was added at room temperature for 5 minutes to detect any luciferase activity. Luminescence intensity was registered using plate reader Victor^2V (PerkinElmer, Boston, MA, USA).
EC50 values in this table are presented in three classes, i.e., A: <1 μM, B: 1 μM-5 μM, and C: 5 μM-10 μM.
Consider `O=C(CCSc1ccccc1Cl)N1Cc2ccccc2C1` [Compound 78, 3-[(2-chlorophenyl)sulfanyl]-1-(1,3-dihydro-2H-isoindol-2-yl)propan-1-one], for which the EC50 – broadly, the concentration that produces a half-maximal response – was less than 1 µM.
Regarding `O=C(CS(=O)(=O)c1nccs1)N1Cc2cccc(F)c2C1` [Compound 30, 1-(4-fluoro-1,3-dihydro-2H-isoindol-2-yl)-2-(1,3-thiazol-2-ylsulfonyl)ethanone], the EC50 was less than 1 µM.
The value for `O=C1N[C@H]2[C@H](CS[C@H]2CCCCC(=O)Oc2ccc3c(c2)CN(C(=O)CS(=O)(=O)c2nccs2)C3)N1` [Compound 51, 2-[(1,3-thiazol-2-ylsulfonyl)acetyl]-2,3-dihydro-1H-isoindol-5-yl 5-[(3aS,4S,6aR)-2-oxohexahydro-1H-thieno[3,4-d]imidazol-4-yl]pentanoate] was less than 1 µM; that for `O=C(CSc1ccccn1)N1Cc2ccc(N3CCOCC3)cc2C1` [Compound 77, 1-[5-(morpholin-4-yl)-1,3-dihydro-2H-isoindol-2-yl]-2-(pyridin-2-ylsulfanyl)ethanone] was 5 to 10 µM.
`O=C(CS(=O)(=O)c1cccc(Cl)n1)N1Cc2ccccc2C1` [Compound 42, 2-[(6-chloropyridin-2-yl)sulfonyl]-1-(1,3-dihydro-2H-isoindol-2-yl)ethanone] returned an EC50 of 1 to 5 µM.
To `O=C(CSc1cccc(Cl)n1)N1Cc2ccccc2C1` [Compound 18, 2-[(6-chloropyridin-2-yl)sulfanyl]-1-(1,3-dihydro-2H-isoindol-2-yl)ethanone] belongs 1 to 5 µM; to `O=C(CS(=O)(=O)c1nccs1)N1Cc2ccc(Cl)cc2C1` [Compound 33, 1-(5-chloro-1,3-dihydro-2H-isoindol-2-yl)-2-(1,3-thiazol-2-ylsulfonyl)ethanone], less than 1 µM.
To `COC(=O)c1ccc2c(c1)CN(C(=O)CSc1nccs1)C2` [Compound 9, methyl 2-[(1,3-thiazol-2-ylsulfanyl)acetyl]-2,3-dihydro-1H-isoindole-5-carboxylate] belongs less than 1 µM; to `O=C(CS(=O)(=O)c1ccc(F)cn1)N1Cc2ccccc2C1` [Compound 101, 1-(1,3-dihydro-2H-isoindol-2-yl)-2-[(5-fluoropyridin-2-yl)sulfonyl]ethanone], less than 1 µM.
To `O=C(CS(=O)(=O)c1ccccc1)N1Cc2ccc(F)cc2C1` [Compound 93, 1-(5-fluoro-1,3-dihydro-2H-isoindol-2-yl)-2-(phenylsulfonyl)ethanone] belongs less than 1 µM; to `COC(=O)c1ccc2c(c1)CN(C(=O)CS(=O)(=O)c1nccs1)C2` [Compound 35, methyl 2-[(1,3-thiazol-2-ylsulfonyl)acetyl]-2,3-dihydro-1H-isoindole-5-carboxylate], less than 1 µM; to `O=C(CS(=O)(=O)c1ncco1)N1Cc2ccc(F)cc2C1` [Compound 109, 1-(5-fluoro-1,3-dihydro-2H-isoindol-2-yl)-2-(1,3-oxazol-2-ylsulfonyl)ethanone], less than 1 µM.
Compound `O=C(C[S+]([O-])c1ccccc1Cl)N1Cc2ccccc2C1` (centres unmarked) [Compound 81, 2-[(2-chlorophenyl)sulfinyl]-1-(1,3-dihydro-2H-isoindol-2-yl)ethanone] returned an EC50 of less than 1 µM.
The value for `O=C(CSc1cccc(F)c1)N1Cc2ccccc2C1` [Compound 56, 1-(1,3-dihydro-2H-isoindol-2-yl)-2-[(3-fluorophenyl)sulfanyl]ethanone] was less than 1 µM; that for `COc1ccc2c(c1)CN(C(=O)CSc1nccs1)C2` [Compound 2, 1-(5-methoxy-1,3-dihydro-2H-isoindol-2-yl)-2-(1,3-thiazol-2-ylsulfanyl)ethanone] was less than 1 µM; that for `O=C(CSc1ncco1)N1Cc2ccccc2C1` [Compound 72, 1-(1,3-dihydro-2H-isoindol-2-yl)-2-(1,3-oxazol-2-ylsulfanyl)ethanone] was less than 1 µM.
The value for `O=C(CCS(=O)(=O)c1cccc(F)n1)N1Cc2ccccc2C1` [Compound 108, 1-(1,3-dihydro-2H-isoindol-2-yl)-3-[(6-fluoropyridin-2-yl)sulfonyl]propan-1-one] was 1 to 5 µM; that for `O=C(CS(=O)(=O)c1ccccn1)N1Cc2ccc(F)cc2C1` [Compound 40, 1-(5-fluoro-1,3-dihydro-2H-isoindol-2-yl)-2-(pyridin-2-ylsulfonyl)ethanone] was less than 1 µM.
For `O=C(CS(=O)(=O)c1nccs1)N1Cc2cc(F)c(F)cc2C1` [Compound 32, 1-(5,6-difluoro-1,3-dihydro-2H-isoindol-2-yl)-2-(1,3-thiazol-2-ylsulfonyl)ethanone], the EC50 is less than 1 µM.
The value for `O=C(N1Cc2ccccc2C1)C(F)(F)Sc1nccs1` [Compound 52, 1-(1,3-dihydro-2H-isoindol-2-yl)-2,2-difluoro-2-(1,3-thiazol-2-ylsulfanyl)ethanone] was less than 1 µM; that for `O=C(CSc1ccccn1)N1Cc2ccccc2C1` [Compound 13, 1-(1,3-dihydro-2H-isoindol-2-yl)-2-(pyridin-2-ylsulfanyl)ethanone] was less than 1 µM.
The value for `Cc1cccc(S(=O)(=O)CC(=O)N2Cc3ccccc3C2)n1` [Compound 41, 1-(1,3-dihydro-2H-isoindol-2-yl)-2-[(6-methylpyridin-2-yl)sulfonyl]ethanone] was 1 to 5 µM; that for `O=C(CS(=O)(=O)c1nccs1)N1Cc2ccc(F)cc2C1` [Compound 31, 1-(5-fluoro-1,3-dihydro-2H-isoindol-2-yl)-2-(1,3-thiazol-2-ylsulfonyl)ethanone] was less than 1 µM; that for `O=C(CSc1nccs1)N1Cc2cc(F)c(F)cc2C1` [Compound 6, 1-(5,6-difluoro-1,3-dihydro-2H-isoindol-2-yl)-2-(1,3-thiazol-2-ylsulfanyl)ethanone] was 1 to 5 µM.
To `O=C(CS(=O)(=O)c1ncccc1F)N1Cc2ccccc2C1` [Compound 103, 1-(1,3-dihydro-2H-isoindol-2-yl)-2-[(3-fluoropyridin-2-yl)sulfonyl]ethanone] belongs less than 1 µM; to `O=C(CSc1ncccc1F)N1Cc2ccccc2C1` [Compound 71, 1-(1,3-dihydro-2H-isoindol-2-yl)-2-[(3-fluoropyridin-2-yl)sulfanyl]ethanone], less than 1 µM; to `O=C(CS(=O)(=O)c1ccccc1Cl)N1Cc2ccccc2C1` [Compound 99, 2-[(2-chlorophenyl)sulfonyl]-1-(1,3-dihydro-2H-isoindol-2-yl)ethanone], less than 1 µM.
Compound `O=C(N1Cc2ccccc2C1)C(F)(F)CSc1ccccn1` [Compound 27, 1-(1,3-dihydro-2H-isoindol-2-yl)-2,2-difluoro-3-(pyridin-2-ylsulfanyl)propan-1-one] gave a concentration giving a half-maximal response (EC50) of 1 to 5 µM.
The value for `O=C(C[S+]([O-])c1cccc(F)n1)N1Cc2ccccc2C1` (centres unmarked) [Compound 82, 1-(1,3-dihydro-2H-isoindol-2-yl)-2-[(6-fluoropyridin-2-yl)sulfinyl]ethanone] was less than 1 µM; that for `O=C(CCS(=O)(=O)c1nccs1)N1Cc2ccccc2C1` [Compound 48, 1-(1,3-dihydro-2H-isoindol-2-yl)-3-(1,3-thiazol-2-ylsulfonyl)propan-1-one] was less than 1 µM.
The value for `O=C(CS(=O)(=O)c1ccccn1)N1Cc2ccc(O)cc2C1` [Compound 85, 1-(5-hydroxy-1,3-dihydro-2H-isoindol-2-yl)-2-(pyridin-2-ylsulfonyl)ethanone] was less than 1 µM; that for `Cn1ccc(S(=O)(=O)CC(=O)N2Cc3ccccc3C2)n1` [Compound 102, 1-(1,3-dihydro-2H-isoindol-2-yl)-2-[(1-methyl-1H-pyrazol-3-yl)sulfonyl]ethanone] was 1 to 5 µM.
The value for `COc1ccc2c(c1)CN(C(=O)CSc1ccccn1)C2` [Compound 14, 1-(5-methoxy-1,3-dihydro-2H-isoindol-2-yl)-2-(pyridin-2-ylsulfanyl)ethanone] was less than 1 µM; that for `O=C(N1Cc2ccc(F)cc2C1)C(F)(F)S(=O)(=O)c1ccccn1` [Compound 50, 2,2-difluoro-1-(5-fluoro-1,3-dihydro-2H-isoindol-2-yl)-2-(pyridin-2-ylsulfonyl)ethanone] was less than 1 µM; that for `O=C(CSc1cccc(Cl)c1Cl)N1Cc2ccccc2C1` [Compound 68, 2-[(2,3-dichlorophenyl)sulfanyl]-1-(1,3-dihydro-2H-isoindol-2-yl)ethanone] was 1 to 5 µM.
In the case of `O=C(CS(=O)(=O)c1ncco1)N1Cc2ccccc2C1` [Compound 104, 1-(1,3-dihydro-2H-isoindol-2-yl)-2-(1,3-oxazol-2-ylsulfonyl)ethanone], the EC50 was less than 1 µM.
The value for `O=C(CS(=O)(=O)c1cccc(F)n1)N1Cc2ccccc2C1` [Compound 97, 1-(1,3-dihydro-2H-isoindol-2-yl)-2-[(6-fluoropyridin-2-yl)sulfonyl]ethanone] was less than 1 µM; that for `O=C(NCCSc1ccccn1)N1Cc2ccccc2C1` [Compound 25, N-[2-(pyridin-2-ylsulfanyl)ethyl]-1,3-dihydro-2H-isoindole-2-carboxamide] was 1 to 5 µM.
